# Measured values published in patent US5491220A, “Surface loop structural analogues of fibroblast growth factors” (Yeda Research and Development Co., Ltd., priority 1994, dated 1996).
# “Also recorded” adds a separate entry of the source.
# Tests used:
# [1] = test system: soluble FGF receptor 1 (FGFR-1; flg); test: Competition binding to soluble FGFR1 (displacement of 125I-FGF-2); design: species or system murine; conditions: 200 ng/ml heparin
# Experimental: (§1) Binding of FGF proteins to different FGF receptors are determined in this example, by measuring the degree of competition for binding to different types of FGF-receptor proteins between a radioiodinated FGF protein and various unlabelled proteins, or by the direct binding of radioiodinated FGF's to various receptor proteins. Binding studies are confirmed by chemical cross-linking of the radioiodinated FGF to soluble receptors in the presence and absence of excess unlabelled FGF.
# (§2) Soluble FGF receptor proteins are constructed by cloning of the extracellular region of murine FGF receptor 1 (FGFR-1; flg), FGF receptor 2 (FGFR-2; bek) or the KGF receptor (FGFR(IIIb); K-sam) into the alkaline phosphatase-tag expression vector, which encodes for a secreted form of placental alkaline phosphatase (AP). The FGF receptor alkaline phosphatase (FRAP) plasmids are cotransfected into NIH 3T3 cells by electroporation with a selectable neomycin resistance gene. Clonies are selected in G418 (600 μg/ml) and screened for secreted AP enzyme activity in the conditioned medium. Clones of each receptor which produced a high level of AP activity (2 to 4 A405 units/min/ml) are then used to produce conditioned medium for binding assays.
# (§3) Components of the soluble receptor binding reaction mixture include FRAP-conditioned medium (0.24 OD units/min), 2 ng/ml^125 I-FGFs and 200 ng/ml heparin. The FGF:heparin:FRAP terniary complex is immunoprecipitated with 20 μl of a 1:1 slurry of anti-AP monoclonal antibodies coupled to protein A Sepharose®. All components are mixed at room temperature. The total volume is adjusted to 200 μl by addition of DMEM containing 0.1% bovine serum albumin. Binding is allowed to proceed for 1 to 2 hours at 24° C., after which time bound receptor complex or the ligand is recovered by centrifugation at 4° C. (10 s at 2,000×g). The pelleted material is washed twice with 500 μl of an ice cold buffer containing HEPES (20 mM), NaCl (150 mM), glycerol (10%) and Triton® X-100 (1%). ^125 I-FGF binding is quantitated by counting of the samples in a gamma counter (LKB). Alternatively, AP enzyme activity of the FRAP protein is determined by transferring the FRAP receptor bound to […] to a flat-bottom microtiter plate in a volume of 50 μl of PBS. The reaction is initiated by addition of substrate (50 μl of 2× solution of AP assay buffer containing 2M diethanoiamine, 1 mM MgCl2, 20 mM homoarginine and 12 mM p-nitrophenyl phosphate). The reaction is followed at room temperature at 405 nm in a kinetic microplate reader.
# [2] = test system: FGFR1; test: Chemical cross-linking of 125I-FGF to soluble FGFR1; assay type: binding, murine; conditions: with and without excess unlabelled FGF
# Experimental: as §1, §2
# (§4) Chemical cross-linking experiments are carried out at room temperature in a volume of 20 μl in siliconized 0.5-ml microcentrifuge tubes. The reaction mixtures contain FGF receptor immobilized to anti-AP monoclonal antibodies coupled to protein A Sepharose®, 200 ng/ml heparin, 2 ng/ml^125 I-bFGF, 20 mM phosphate buffer (pH 7.4), and 140 mM NaCl. After a 90 minute incubation, […] of a solution of disuccinimidyl suberate (Pierce) dissolved in dimethyl sulfoxide is added to give a final concentration of 0.15 mM, and the mixture incubated for an additional 30 minutes. The reaction is quenched by addition of […] of 200 mM ethanolamine-HCl (pH 8.0) for 30 min. The reaction mixtures are diluted 1:1 with 2× SDS-polyacrylamide gel electrophoresis loading buffer and electrophoresed on an SDS-12% polyacrylamide gel. Cross-linked FGF to the FGF receptor are detected by autoradiography on Kodak XAR film.
# [3] = test system: FGF receptor on BHK cells; test: Competition for 125I-FGF-2 binding to baby hamster kidney (BHK) cells; conditions: 50 pM 125I-FGF-2; compared with FGF-2
# Experimental: FGF-2LI and FGF-2LA are tested for their capacity to compete for the binding of ^125 I-FGF-2 (Amersham Corp.) to baby hamster kidney (BHK) cells, which express high numbers of FGF receptor. The assay employed is described by Moscatelli (J. Cell. Physiol. 131: 123-130 (1987)). Briefly stated, BHK cells plated on 24-well plates are incubated with 50 pM ^125 I-FGF-2 with serial dilutions of unlabelled FGF-2, FGF-2LI or FGF-2LA loop mutants at room temperature for 1 hour or at 4° C. for 2 hours. The cells are then incubated at 4° C. for 30 minutes, washed twice with phosphate-buffered saline and treated with 20 mM HEPES (N-2-hydroxyethyl-piperazine-N'-2-ethanesulfonic acid), pH 7.5, containing 2M NaCl to remove ^125 I-FGF-2 bound to low affinity heparin sulfate binding sites. Receptor bound ^125 I-FGF-2 is recovered by treatment of the cells with 0.5% Triton X-100 in 0.1M sodium phosphate, pH 8, and counted in a γ-counter. Assays are conducted in duplicate.
# [4] = test system: FGFR2(IIIb) (FGF-7 or KGF receptor); test: Competition binding to soluble FGFR2(IIIb) (displacement of 125I-FGF-7); design: species or system murine; conditions: 200 ng/ml heparin
# Experimental: as §1, §2, §3
# [5] = test system: FGFR2(IIIb); test: Chemical cross-linking of 125I-FGF to soluble FGFR2(IIIb); assay type: binding, murine; conditions: with and without excess unlabelled FGF
# Experimental: as §1, §2, §4
# [6] = Affinity for immobilized heparin (NaCl elution from heparin column); assay type: binding
# Experimental: Cells from 1 liter cultures are harvested by centrifugation, resuspended in 30 ml of 50 mM Tris-HCl, pH 7.5 containing 0.1 mM EDTA and 0.6M NaCl, and disrupted by treatment with lysozyme (10 μg/ml) for 20 min at 4° C. followed by sonication (6×30 sec pulses). The lysates are clarified by centrifugation (10,000×g; 20 min) and the supernatant solutions incubated with 5 ml of hydrated heparin Sepharose (Pharmacia/LKB) at 4° C. for 1 hour with constant rotation. The resin is isolated by filtration on 0.8 μm filter apparatus (Nalgene), washed extensively with 10 mM Tris-HCl pH 7.4 containing 0.6M NaCl and bound protein eluted with Tris buffer containing 3M NaCl (25 ml). The 3M NaCl eluent is diluted 6-fold with Tris buffer and loaded onto a TSK heparin 5PW column (0.21×15 cm; The Nest Group, MA) and the column developed using a linear NaCl gradient (0.6 to 2M) in 90 min at a flow rate of […].
# NaCl elution from heparin-Sepharose® is about 0.7M NaCl, compared with 1.4M NaCl for the wild-type protein. The molarity of NaCl required to elute the LK mutant is similar to that required to elute FGF-7.
# [7] = test system: neovascularization; test: In vivo angiogenesis, rabbit ear chamber model
# Experimental: In an in vivo model of angiogenesis, FGF-2LI is evaluated using the rabbit ear chamber system modified and improved by Howden, G. F., and Silver, I. A., (Int. Endodontic J. 13: 3-16 (1980)), observing the growth factor-induced neovascularization, or its inhibition, by modified growth factors or other reagents.
# Rabbits are sedated using 50-70 mg/kg ketamine and 10 mg/kg xylozine administered intramuscularly. The ears are shaved with an electric hair clipper and cleaned with water, followed by Betadine®. To minimize the risk of infection, the rabbits are given 20,000 units/kg benzathine penicillin intramuscularly prior to insertion of the ear chambers. The chamber is inserted into an approximately 0.75 cm area which is not crossed by any major vessels. During the course of the experiments, observations or any minor handling of ear chambers of the animals is done by sedating the animal using the intramuscular administration of a combination of Butorphanol® and acepromazine at levels of 1 mg/kg each. FGF-2 or FGF-2LI bound to heparin-Sepharose® beads in a controlled-release alginate capsule is contained in one of the ear chambers and the other is used as a control containing only the heparin-Sepharose® alginate capsule vehicle. Thus, the effect of the growth factors and the controlled-release capsule alone can be observed simultaneously in the same animal. […] The animals are kept for 4 to 6 weeks and neovascularization is observed visually and recorded photographically at weekly intervals.
# The criteria for evaluation of the degree of neovascularization using this procedure is set out below.
Substance,Binding to soluble FGFR1 (competition with 125I-FGF-2) [1],Cross-linking to FGFR1 [2],Capacity to compete with 125I-FGF-2 binding to FGF receptors on BHK cells [3],Binding to soluble FGFR2(IIIb) (competition with 125I-FGF-7) [4],Cross-linking to FGFR2(IIIb) [5],NaCl concentration at elution from TSK-heparin column ([6]; TSK-heparin column),NaCl elution from heparin-Sepharose ([6]; heparin-Sepharose) [M],Angiogenesis at 400 ng/chamber ([7]; 400 ng/chamber),Concentration range over which stimulatory activity is observed ([7]; rabbit ear chamber),"Potential to induce angiogenesis (neovascularization) ([7]; rabbit ear chamber, controlled-release alginate capsule)","Vessel formation in the chamber ([7]; rabbit ear chamber, versus control chambers)"
FGF-1: acidic fibroblast growth factor,bind equally well,bind,affinity equal to that of FGF-2,bind with the same affinity,bind,–,–,–,–,–,–
"FGF-2: basic fibroblast growth factor, wild-type factor used as comparator (NNYNTYRSRKYTSWYVALKRT) [reference compound]",bind equally well,bind,–,do not bind; also recorded: does not compete,excluded from binding,about 1.5 M,1.4,completely inhibited,10-100 ng/chamber,dose-dependent induction of new blood vessels,stimulate large vessel formation
"FGF-7: fibroblast growth factor-7, also known as keratinocyte growth factor or KGF (NHYNTYASAKWTHNGGEMFVALNQK)",no binding,not detected,–,bind with the same affinity,bind,–,–,–,–,–,–
hrIL-1β: human recombinant interleukin-1β (Biogen) [reference compound],–,–,no binding,–,–,–,–,–,–,–,–
